Earlier results on nine molecules are cited in PMC7904743, “WIDOCK: a reactive docking protocol for virtual screening of covalent inhibitors” (Journal of Computer-Aided Molecular Design, 2021).

The conditions of series [1]: thiol reactivity, cited from earlier work.
The test system of a further series is OTUB2. The settings on record: OTUB2 protein labeling; experimental actives if % labeling higher than 50%; cited from earlier work.
The next series has as its system NUDT7. Particulars: protein labeling at 200 μM; experimental actives if % labeling higher than 50%; cited from earlier work.
Setting [2] is: natural log of average kinetic rate constant.
Setting [3] is: natural log of average rate constant.

Where two headings read alike, the source gives them in different places.

On to `Cc1cc(NC(=O)CCl)n(-c2ccccc2F)n1` [PCM-0103066, Cc1cc(NC(=O)CCl)n(-c2ccccc2F)n1], for which the “ln(avg k)” value in series [1] (setting [2]) and in series [1] (setting [3]) was -15.986 each time. For the same molecule, in the series with OTUB2, the OTUB2 % labeling is given as 44%. Moreover, the NUDT7 % labeling in the series with NUDT7 is 0%.

On to `O=C(CCl)N1CCC(c2nc3ccccc3s2)CC1` [PCM-0103068, O=C(CCl)N1CCC(c2nc3ccccc3s2)CC1], for which the “ln(avg k)” value in series [1] (setting [2]) and in series [1] (setting [3]) was -15.772 each time. For the same molecule, the OTUB2 % labeling in the series with OTUB2 was 0%. Further, in the series on NUDT7, the NUDT7 % labeling is reported as 65%.

In the case of `COCC(=O)NNC(=O)CCl` [PCM-0103070, COCC(=O)NNC(=O)CCl], the “ln(avg k)” value in series [1] (setting [2]) and in series [1] (setting [3]) was -17.475 in each case. The OTUB2 % labeling in the series with OTUB2 is on record as 0%. The NUDT7 % labeling with NUDT7 is given as 0%.

Take `O=C(CCl)N1CCCc2cccc(F)c21` [PCM-0103071, O=C(CCl)N1CCCc2cccc(F)c21]: the “ln(avg k)” value in series [1] (setting [2]) and in series [1] (setting [3]) was -16.007 in each case. The OTUB2 % labeling with OTUB2 was 0%. In addition, in the series on NUDT7, the NUDT7 % labeling was 40%.

As to `Cc1ccsc1CNC(=O)CCl` [PCM-0103075, Cc1ccsc1CNC(=O)CCl], the “ln(avg k)” value in series [1] (setting [2]) and in series [1] (setting [3]) was -16.632 in each case. The OTUB2 % labeling with OTUB2 is reported as 55%. In addition, in the series on NUDT7, the NUDT7 % labeling is 0%.

For the molecule `O=C(CCl)Nc1ccon1` [PCM-0103077, O=C(CCl)Nc1ccon1], the “ln(avg k)” value in series [1] (setting [2]) and in series [1] (setting [3]) was -16.220 in each case. Also, the OTUB2 % labeling in the series on OTUB2 is given as 30%. The NUDT7 % labeling in the series with NUDT7 is reported as 0%.

For the molecule `O=C(CCl)NCc1ccc(Cl)s1` [PCM-0103080, O=C(CCl)NCc1ccc(Cl)s1], the “ln(avg k)” value in series [1] (setting [2]) and in series [1] (setting [3]) was -16.506 in each case. The OTUB2 % labeling in the series on OTUB2 is reported as 79%. In addition, the NUDT7 % labeling in the series on NUDT7 is given as 0%.

With `CN(Cc1cc(Br)cs1)C(=O)CCl` [PCM-0103081, CN(Cc1cc(Br)cs1)C(=O)CCl], the “ln(avg k)” value in series [1] (setting [2]) and in series [1] (setting [3]) was -15.601 throughout. Further, the OTUB2 % labeling in the series on OTUB2 is reported as 0%. In the series on NUDT7, the NUDT7 % labeling was 0%.

Take `Cc1ccc(N(C(=O)CCl)C2C=CS(=O)(=O)C2)cc1C` (stereo not drawn) [PCM-0103082, Cc1ccc(N(C(=O)CCl)C2C=CS(=O)(=O)C2)cc1C]: the “ln(avg k)” value in series [1] (setting [2]) and in series [1] (setting [3]) was -15.512 in each case. Moreover, in the series on OTUB2, the OTUB2 % labeling is 0%. Moreover, the NUDT7 % labeling in the series with NUDT7 was 15%.
